Test results reported in ChEMBL document CHEMBL2029311, “Design, synthesis, and evaluation of a novel class of 2,3-disubstituted-tetrahydro-β-carboline derivatives” (2012).

Tests used:
Mus musculus [1] = test: Antiinflammatory activity in ICR mouse assessed as inhibition of xylene-induced ear edema at 10 umol/kg, po administered 30 mins before xylene challenge relative to control; format: functional
Mus musculus [2] = test: Antiinflammatory activity in ICR mouse assessed as inhibition of xylene-induced ear edema at 100 mg/kg, po administered 30 mins before xylene challenge relative to control; format: functional

Structure (SMILES)	inhibition in vivo at 10 µmol/kg (Mus musculus [1])	inhibition in vivo at 100 mg/kg (Mus musculus [2])
C[C@H](NC(=O)OC(C)(C)C)C(=O)N1Cc2[nH]c3ccccc3c2C[C@H]1C(=O)N[C@H]1C(O)O[C@H](CO)[C@@H](O)[C@@H]1O (mixture of isomers)	51.9%	–
CC(=O)OC[C@H]1O[C@@H](OC(C)=O)[C@H](NC(=O)[C@@H]2Cc3c([nH]c4ccccc34)CN2C(=O)CNC(=O)OC(C)(C)C)[C@@H](OC(C)=O)[C@@H]1OC(C)=O	58.6%	–
CC(=O)Oc1ccccc1C(=O)O [ASPIRIN]	–	89.5%
CC(=O)OC[C@H]1O[C@@H](OC(C)=O)[C@H](NC(=O)[C@@H]2Cc3c([nH]c4ccccc34)CN2C(=O)OC(C)(C)C)[C@@H](OC(C)=O)[C@@H]1OC(C)=O	71.2%	–
CC(=O)OC[C@H]1O[C@@H](OC(C)=O)[C@H](NC(=O)[C@@H]2Cc3c([nH]c4ccccc34)CN2C(=O)[C@H](C)NC(=O)OC(C)(C)C)[C@@H](OC(C)=O)[C@@H]1OC(C)=O	82%	–
C[C@H](N)C(=O)N1Cc2[nH]c3ccccc3c2C[C@H]1C(=O)N[C@H]1C(O)O[C@H](CO)[C@@H](O)[C@@H]1O (mixture of isomers)	66%	–
